From patent US4446047A, “Pleochroic anthraquinone dyes” (Imperial Chemical Industries PLC, priority 1981, dated 1984)

Assays:
[1] = Order parameter in liquid crystal medium E43; format: physicochemical; details: E43, 20° C.
Experimental: (§1) In order to provide maximum contrast between the two states it is important that the guest molecules adopt as closely as possible the time averaged orientation of the host, however this is achieved only to a limited degree because of random thermal fluctuations. The degree to which the orientation varies from the ideal is measured by a quantity known as the order parameter S which is given by the following equation: […]
where cos^2 θ is a time averaged term and θ is the instantaneous angular orientation of the molecules with respect to the time averaged orientation of the host molecules.

[2] = Absorption maximum in liquid crystal medium E43; format: physicochemical; details: E43, 20° C.; for λmax: Table 4; for max: HPLC fractions, Table 3
Excerpt: Detection was by means of a u.v. source (254 nm) and samples, corresponding to all the peaks in the chromatogram, were collected.

[3] = Order parameter in other liquid crystal media (hosts) / liquid crystal materials; format: physicochemical; details: general statement
Experimental: as §1
where cos^2 θ is a time averaged term and θ is the instantaneous angular orientation of the molecules with respect to the time averaged orientation of the host molecules. The determination of the value of the order parameter S is well understood in the art, see for example the paper, "A new absorptive mode reflective liquid crystal display device", by D. L. White and G. N. Taylor in the Journal of Applied Physics, 1974, 45, pages […] to 4723.
(§2) The properties of some of the dyes described in the Examples were also measured in other liquid crystal media (hosts) at 20° C., unless otherwise stated, and the results are set out in Table 5.
(§3) The liquid crystal materials referred to in Table 5 as Hosts 1 to 12 have the following compositions:
(§4) Host 1 is the liquid crystal material E7, available from BDH Chemicals Ltd, which includes the compounds:
(§5) Host 2 is the liquid crystal material ZLI 1132, available from E Merck & Co, which includes the following compounds:
(§6) Host 3 is the liquid crystal material ZLI 1695, available from E Merck & Co, Darmstadt, West Germany. This has a clearing point (nematic to isotropic transition temperature) of 72° C.
(§7) Host 4 is a mixture of alkyl-cyanophenyl-dioxanes containing n-propyl, n-pentyl and n-heptyl chains.
(§8) Host 5 is the liquid crystal material ZLI 1565, available from E Merck & Co. This has a clearing point of 85° C.
(§9) Host 6 is the liquid crystal material ZLI 1624, available from E Merck & Co. This has a clearing point of 87° C.
(§10) Host 8 is the liquid crystal material RO-TN 430 available from Hoffmann La Roche Co. This has a clearing point of 69° C.
(§11) Host 9 is a mixed bicyclo-octane liquid crystal material containing the following compounds:
(§12) Host 10 is a mixture of liquid crystal materials based mainly on cyanobiphenyls and available from BDH Chemicals Ltd under the name E61.
(§13) Host 11 is a mixture of liquid crystal materials based mainly on cyanobiphenyls and available from BDH Chemicals Ltd under the name E49.
(§14) Host 12 is a mixture of fluorobicyclo(2,2,2)octane esters having negative anisotropy and containing a mixture of two compounds of the following formula: […]

[4] = Solubility in other liquid crystal media (hosts) / liquid crystal materials; format: physicochemical; details: general statement
Experimental: as §2, §3, §4, §5, §6, §7, §8, §9, §10, §11, §12, §13, §14

[5] = Molar extinction coefficient in chloroform; format: physicochemical
Experimental: To a mixture of 9.4 g of 2,7-di-n-pentyl-4,5-dinitrochrysazin from Example 25(b) in 200 ml of pyridine at 20° C. there was added a solution of 2.2 ml of thiophenol in 50 ml of pyridine. The colour of the mixture gradually changed from orange-brown to red and after 2 hours at 20° C. was drowned into water, filtered, washed successively with water and methanol and dried to yield 9.5 g of product (88% theory). The structure was confirmed by mass spectrometry and elemental analysis, C=67.5 (67.5) H=5.8 (5.8) S=6.7 (6.0) and N=3.0 (2.7).
To a mixture of 1.7 ml of 4-t-butylphenylmercaptan and 0.4 g of KOH in 50 ml of isopropanol at 60° C. was added 3.7 g of the product of Example 25(c) and the temperature raised to 80° C. for 1.5 hour. It was then cooled to room temperature, filtered, washed successively with isopropanol and methanol and dried to give 3.5 g of product. After recrystallisation from petroleum ether, the structure was confirmed by mass spectrometry and elemental analysis, C=73.0 (73.6) H=6.5 (6.8) S=9.1 (9.8).
The process of Example 25(c) was repeated using 9.6 g of 2,7-n-heptyl-4,5-dinitrochrysazin in place of the 9.4 g of 2,7-di-n-pentyl-4,5-dinitrochrysazin. The structure was confirmed by mass spectrometry.
The process of Example 25(d) was repeated using 3.8 g of 2,7-di-n-heptyl-4-phenylthio-5-nitrochrysazin in place of the 3.7 g of 2,7-di-n-pentyl-4-phenylthio-5-nitrochrysazin. After recrystallisation from petroleum ether, the structure was confirmed by mass spectrometry.

[6] = Solubility in liquid crystal material E43; details: E43, 20° C., HPLC fractions, Table 3

Molecule | Order Parameter ([1]; Table 4) | λmax [2] | further results
CC(CCc1cc(N)c2c(c1O)C(=O)c1c(O)c(CCC(C)CC(C)(C)C)cc(Sc3ccccc3)c1C2=O)CC(C)(C)C (stereo not shown) [23(d), 1,8-dihydroxy-2,7-di-nonyl-4-phenylthio-5-aminoanthraquinone] | 0.74 | 565/610 | –
bis-(phenylthio)-bis-(t-butylphenylthio)AQ [Fraction 4] | – | – | Order Parameter ([1]; HPLC fractions, Table 3): 0.77; max [2]: 550 nm
CC(C)(C)c1ccc(Sc2ccc(N)c3c2C(=O)c2c(N)ccc(Sc4ccccc4)c2C3=O)cc1 [Example 18, 1-phenylthio-5(4-t-butylphenylthio)-4,8-diamino-AQ] | 0.73 | 605 nm | –
O=C1c2c(Sc3ccccc3)ccc(Sc3ccccc3)c2C(=O)c2c(Sc3ccccc3)ccc(Sc3ccccc3)c21 (single isomer, unassigned) [1,4,5,8-tetrakis(phenylthio)anthraquinone, reference compound] | – | – | Order Parameter ([1]; HPLC fractions, Table 3): 0.78; max [2]: 550 nm
CC(C)(C)c1ccc(Sc2ccc(Sc3ccccc3)c3c2C(=O)c2c(Sc4ccccc4)ccc(Sc4ccccc4)c2C3=O)cc1 [Fraction 5, tris-(phenylthio)-t-butylphenylthio-AQ] | – | – | Order Parameter ([1]; HPLC fractions, Table 3): 0.78; max [2]: 550 nm
CC(C)(C)c1ccc(Sc2ccc(Sc3ccc(C(C)(C)C)cc3)c3c2C(=O)c2c(Sc4ccc(C(C)(C)C)cc4)ccc(Sc4ccc(C(C)(C)C)cc4)c2C3=O)cc1 (single isomer, unassigned) [1,4,5,8-tetrakis(4-t-butylphenylthio)anthraquinone, reference compound] | – | – | Order Parameter ([1]; HPLC fractions, Table 3): 0.78; max [2]: 550 nm
CC(C)(C)c1ccc(Sc2ccc(Sc3ccccc3)c3c2C(=O)c2c(Sc4ccc(C(C)(C)C)cc4)ccc(Sc4ccc(C(C)(C)C)cc4)c2C3=O)cc1 [Fraction 2, tris-(t-butylphenylthio)-phenylthio-AQ] | – | – | Order Parameter ([1]; HPLC fractions, Table 3): 0.78; max [2]: 550 nm
CCCCCc1cc(Sc2ccccc2)c2c(c1O)C(=O)c1c(O)c(CCCCC)cc(Sc3ccc(C(C)(C)C)cc3)c1C2=O [Example 25(d), 2,7-di-n-pentyl-4-phenylthio-5-(4-t-butylphenylthio)chrysazin] | 0.77 | 592 nm | molar extinction coefficient ([5]; 592 nm): 19,183
Cc1cccc(Sc2cccc3c2C(=O)c2cccc(Sc4ccccc4)c2C3=O)c1 [Example 12, 1-phenylthio-5(3-methylphenylthio)AQ] | 0.78 | 464 nm | –
CC(C)(C)c1ccc(Sc2cccc3c2C(=O)c2c(Sc4ccccc4)ccc(Sc4ccc(C(C)(C)C)cc4)c2C3=O)cc1 [Example 22, 1,5-di(4-t-butylphenylthio)-4-phenylthio-AQ] | 0.81 | 520 nm | –
bis-(phenylthio)-bis-(t-butylphenylthio)AQ [Fraction 3] | – | – | Solubility [6]: < 0.5%
CCCCCCCc1cc(Sc2ccccc2)c2c(c1O)C(=O)c1c(O)c(CCCCCCC)cc([N+](=O)[O-])c1C2=O [Example 26(c), 2,7-Di-n-heptyl-4-phenylthio-5-nitrochrysazin] | – | – | molar extinction coefficient ([5]; 540 nm): 12,095
CCCCCc1cc(Sc2ccccc2)c2c(c1O)C(=O)c1c(O)c(CCCCC)cc([N+](=O)[O-])c1C2=O [Example 25(c), 2,7-Di-n-pentyl-4-phenylthio-5-nitrochrysazin] | – | – | molar extinction coefficient ([5]; 540 nm): 12,541
CC(CCc1cc(N)c2c(c1O)C(=O)c1c(Sc3ccccc3)cc(CCC(C)CC(C)(C)C)c(O)c1C2=O)CC(C)(C)C (stereo not shown) [Example 23(c), 1,5-dihydroxy-2,6-dinonyl-4-phenylthio-8-aminoanthraquinone] | 0.73 | 565/610 | –
bis-(phenylthio)-bis-(t-butylphenylthio)AQ [Fraction 3a] | – | – | Order Parameter ([1]; HPLC fractions, Table 3): 0.78; max [2]: 550 nm

The next lines start with results.

Order Parameter ([1]; Table 4) | λmax [2] | Molecule | further results
0.75 | 470 nm | CCCCSc1cccc2c1C(=O)c1cccc(Sc3ccccc3)c1C2=O [Example 14, 1-phenylthio-5(n-butylthio)AQ] | –
0.83 | 590 nm | CCCCCCCCCCCCc1cc(Sc2ccccc2)c2c(c1O)C(=O)c1c(O)c(CCCCCCCCCCCC)cc(Sc3ccc(C(C)(C)C)cc3)c1C2=O [24(d), 1,8-dihydroxy-2,7-didodecyl-4-phenylthio-5-(4-t-butylphenylthio)-AQ] | –
0.78 | 592 nm | CCCCCCCc1cc(Sc2ccccc2)c2c(c1O)C(=O)c1c(O)c(CCCCCCC)cc(Sc3ccc(C(C)(C)C)cc3)c1C2=O [26(d), 2,7-Di-n-heptyl-4-phenylthio-5-(4-t-butylphenylthio)chrysazin] | order parameter in liquid crystal materials (in words) [3]: high; solubility in liquid crystal materials (in words) [4]: particularly good; molar extinction coefficient ([5]; 592 nm): 19,650
0.81 | 465 nm | O=C1c2cccc(SC3CCCCC3)c2C(=O)c2cccc(Sc3ccccc3)c21 [Example 16, 1-phenylthio-5-cyclohexylthio-AQ] | –
0.72 | 590 nm | CC(CCc1cc(Sc2ccccc2)c2c(c1O)C(=O)c1c(O)c(CCC(C)CC(C)(C)C)cc(Sc3ccccc3)c1C2=O)CC(C)(C)C (stereo not shown) [23(f), 1,8-dihydroxy-2,7-dinonyl-4,5-diphenylthio-AQ] | –
0.72 | 565/610 | CC(CCc1cc(Sc2ccccc2)c2c(c1O)C(=O)c1c([N+](=O)[O-])cc(CCC(C)CC(C)(C)C)c(O)c1C2=O)CC(C)(C)C (stereo not shown) [Example 23(a), 1,5-dihydroxy-2,6-dinonyl-4-phenylthio-8-nitroanthraquinone] | –
0.77 | 590 nm | CC(CCc1cc(Sc2ccccc2)c2c(c1O)C(=O)c1c(Sc3ccccc3)cc(CCC(C)CC(C)(C)C)c(O)c1C2=O)CC(C)(C)C (stereo not shown) [Example 23(e), 1,5-dihydroxy-2,6-dinonyl-4,8-diphenylthio-AQ] | –
0.80 | 464 nm | Cc1ccc(Sc2cccc3c2C(=O)c2cccc(Sc4ccccc4)c2C3=O)cc1 [Example 13, 1-phenylthio-5(4-methylphenylthio)AQ] | –
0.78 | 460 nm | O=C1c2cccc(Sc3ccc(-c4ccccc4)cc3)c2C(=O)c2cccc(Sc3ccccc3)c21 [Example 15, 1-phenylthio-5(4-phenylphenylthio)AQ] | –
